Test results as given in PubChem BioAssay (NCI).
Several values for one entry are separate records, joined by “and”; a condition that tells them apart may be missing. Identical values can stand only once.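 Dose response: 5 concentrations. Exposure: 48 h. Format: 96-well plates. Endpoint: linear interpolation; highest concentration if not reached. At the GI50, growth is halved. At the TGI there is no net growth.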

Assays:
Assay in all cases: NCI-60 cell line screen, 48 h
[1] = test system: IGROV1 ovarian
[2] = test system: KM12 colon
[3] = test system: A549 NSCLC
[4] = test system: M14 melanoma
[5] = test system: SF-268 CNS
[6] = test system: U251 CNS
[7] = test system: HCC-2998 colon
[8] = test system: OVCAR-5 ovarian
[9] = test system: HCT-116 colon
[10] = test system: NCI-H522 lung
[11] = test system: OVCAR-3 ovarian
[12] = test system: NCI-H226 lung
[13] = test system: UACC-257 melanoma
[14] = test system: SF-295 CNS
[15] = test system: MDA-N
[16] = test system: BT-549 breast
[17] = test system: SK-MEL-28 melanoma
[18] = test system: SK-MEL-2 melanoma
[19] = test system: ACHN renal
[20] = test system: SR leukemia
[21] = test system: UACC-62 melanoma
[22] = test system: SNB-19 CNS
[23] = test system: NCI-H23 lung
[24] = test system: PC-3 prostate
[25] = test system: HOP-92 NSCLC
[26] = test system: HT29 colon
[27] = test system: T-47D breast
[28] = test system: SNB-75 CNS
[29] = test system: K-562 leukemia
[30] = test system: MDA-MB-231 breast
[31] = test system: MCF7 breast
[32] = test system: MOLT-4 leukemia
[33] = test system: HCT-15 colon
[34] = test system: HS 578T breast
[35] = test system: SW-620 colon
[36] = test system: SN12C renal
[37] = test system: MDA-MB-435
[38] = test system: OVCAR-4 ovarian
[39] = test system: RPMI-8226 leukemia
[40] = test system: SK-OV-3 ovarian
[41] = test system: HOP-62 NSCLC
[42] = test system: MALME-3M melanoma
[43] = test system: NCI-H460 lung
[44] = test system: CAKI-1 renal
[45] = test system: TK-10 renal
[46] = test system: DU-145 prostate
[47] = test system: NCI/ADR-RES ovarian
[48] = test system: SK-MEL-5 melanoma
[49] = test system: SF-539 CNS
[50] = test system: RXF 393 renal
[51] = test system: A498 renal
[52] = test system: OVCAR-8 ovarian
[53] = test system: CCRF-CEM leukemia
[54] = test system: HL-60(TB) leukemia
[55] = test system: COLO 205 colon
[56] = test system: 786-0 renal
[57] = test system: UO-31 renal
[58] = test system: LOX IMVI melanoma
[59] = test system: DMS 114 small cell lung
[60] = test system: EKVX NSCLC

In the case of `Cc1ccc(C2SCC(=O)N2c2ccc(-n3c(-c4ccccc4)nc4ccccc4c3=O)cc2)cc1` (stereo not given), the TGI [1] is reported as 90.7 µM, the TGI [2] is reported as over 100 µM and the TGI [3] is reported as over 100 µM. For the same molecule, the TGI [4] was 69.2 µM, the TGI [5] was over 100 µM and the TGI [6] was 35 µM. For the same molecule, the TGI [7] was 63.1 µM, the TGI [8] was over 100 µM and the TGI [9] was 23.1 µM. For the same molecule, the TGI [10] was 58.6 µM, the TGI [11] was 51.9 µM and the TGI [12] was 57.3 µM. For the same molecule, the TGI [13] was 69.8 µM, the TGI [14] was 44.7 µM and the TGI [15] was 80 µM. It also gave a TGI [16] of 54.7 µM, a TGI [17] of over 100 µM and a TGI [18] of 51.3 µM. For the same molecule, the TGI [19] was 86.4 µM, the TGI [20] was over 100 µM and the TGI [21] was 51.5 µM. The TGI [22] was over 100 µM, the TGI [23] was over 100 µM and the TGI [24] was 55.4 µM. The TGI [25] was 51.6 µM, the TGI [26] was 61.1 µM and the TGI [27] was 67.3 µM. It also gave a TGI [28] of 90.5 µM, a TGI [29] of over 100 µM and a TGI [30] of 39.6 µM. The TGI [31] was over 100 µM, the TGI [32] was over 100 µM and the TGI [33] was 52 µM. It also gave a TGI [34] of 77.9 µM, a TGI [35] of over 100 µM and a TGI [36] of over 100 µM. The TGI [37] was 65.3 µM, the TGI [38] was over 100 µM and the TGI [39] was 55.1 µM. For the same molecule, the TGI [40] was 40.5 µM, the TGI [41] was 53.9 µM and the TGI [42] was 73 µM. For the same molecule, the TGI [43] was 27.6 µM, the TGI [44] was over 100 µM and the TGI [45] was over 100 µM. It also gave a TGI [46] of over 100 µM, a TGI [47] of 63.1 µM and a TGI [48] of 31.9 µM. It also gave a TGI [49] of 39.6 µM, a TGI [50] of 91.3 µM and a TGI [51] of 90.3 µM. It also gave a TGI [52] of over 100 µM, a TGI [53] of over 100 µM and a TGI [54] of 64.4 µM. For the same molecule, the TGI [55] was over 100 µM, the TGI [56] was 74.1 µM and the TGI [57] was 59.1 µM. It also gave a TGI [58] of 48.5 µM.
In the case of `CC(C)SC1CC2C(CC1(C)O)C2(C)C` (stereo not given), the GI50 [59] is reported as 89.7 µM and 18.7 µM, the TGI [59] is reported as over 100 µM and the GI50 [54] is reported as 53.4 µM and 9.68 µM. It also gave a TGI [54] of over 100 µM.
`COc1cccc(C2c3cc4c(cc3OC(N3CCCCC3)C2C)OCO4)c1O` (stereo not given) gave a TGI [1] of over 100 µM, a TGI [2] of 23.1 µM and a TGI [3] of over 66.5 µM. It also gave a TGI [4] of 22.6 µM, a TGI [60] of 56.8 µM and a TGI [5] of 99.8 µM. The TGI [6] was 16.2 µM, the TGI [7] was 25.6 µM and the TGI [8] was 57.7 µM. The TGI [9] was 19.9 µM, the TGI [10] was 8.53 µM and the TGI [11] was 9.14 µM. It also gave a TGI [12] of 46.7 µM, a TGI [13] of over 56.6 µM and a TGI [14] of 24.3 µM. It also gave a TGI [15] of 7.71 µM, a TGI [16] of 54.9 µM and a TGI [17] of 73.2 µM. The TGI [18] was 42.5 µM, the TGI [19] was 56.5 µM and the TGI [20] was 11.8 µM. For the same molecule, the TGI [21] was 28.2 µM, the TGI [22] was over 100 µM and the TGI [23] was over 71.6 µM. The TGI [24] was over 79.8 µM, the TGI [25] was 46.8 µM and the TGI [26] was 13.3 µM. It also gave a TGI [27] of 80 µM, a TGI [28] of 68.5 µM and a TGI [29] of 12.7 µM. The TGI [30] was over 56.7 µM, the TGI [31] was 57.7 µM and the TGI [32] was 37.6 µM. For the same molecule, the TGI [33] was 19.9 µM, the TGI [34] was over 26.4 µM and the TGI [35] was over 87.8 µM. It also gave a TGI [36] of 19.4 µM, a TGI [37] of 6.82 µM and a TGI [38] of over 100 µM. It also gave a TGI [39] of 12.3 µM, a TGI [40] of over 79.1 µM and a TGI [41] of 13.7 µM. The TGI [42] was 36.1 µM, the TGI [43] was 24.4 µM and the TGI [44] was over 53 µM. For the same molecule, the TGI [45] was 62.8 µM, the TGI [46] was 96.9 µM and the TGI [47] was over 100 µM. For the same molecule, the TGI [48] was 16.3 µM, the TGI [49] was 5.82 µM and the TGI [50] was 18.7 µM. It also gave a TGI [52] of over 36.5 µM, a TGI [53] of 13.9 µM and a TGI [54] of 5.92 µM. It also gave a TGI [55] of 25.5 µM, a TGI [56] of 26.2 µM and a TGI [57] of 81.1 µM. It also gave a TGI [58] of 41.7 µM.
